Measurements reported in article PMC6829536 (International Journal of Molecular Sciences, 2019).

Tests used:
[1] = tested on: Cc1cc2nc3c(=O)[nH]c(=O)nc-3n(C[C@H](O)[C@H](O)[C@H](O)CO)c2cc1C; assay: purified protein, by the assay type; format: biochemical, Corynebacterium ammoniagenes; settings: RF varied, saturating ATP, apparent value, 20 mM PIPES, 0.8 mM MgCl2, pH 7.0, 25 °C
Description: Reactions were initiated by the addition of ~20 nM of enzyme. After 1 min incubation at 25 °C, the reactions were stopped by boiling the mixtures for 5 min. The composition of flavins in the supernatant was determined using an Alliance HPLC system (Waters, Milford, MA, USA) equipped with a 2707 autosampler and a HSST3 column (4.6 × 150 mm, 3.5 µm, Waters) preceded by a pre-column (4.6 × 20 mm, 3.5 µm, Waters). The chromatography was developed at 1 mL/min with a 6 min isocratic program of methanol 40% (v/v) in 5 mM ammonium acetate (pH 6.0). Detection of flavins was carried out using a 2475 Multi λ fluorescence detector (Waters), excitation wavelength of 470 nm and emission wavelength of 530 nm. […] The flavinic products of the reaction were identified by their retention times and quantified through their corresponding standard curves obtained under the same conditions. Controls containing free flavins in the absence of the enzyme were treated similarly to reaction samples to discard flavin degradation during RFK activity determination. […] In case of inhibition, the experimental data were fitted to a model describing the substrate inhibition of a bi-substrate mechanism. In these situations, errors in apparent Km and kcat (^appKm and ^appkcat) increased with the inhibition constant (Ki) value getting closer to Km^S. Reaction mixtures were evaluated in triplicates, and final results are expressed as the standard error of the fitted value (value ± SE).

CaFADS variants [2] = assay: Difference spectroscopy of flavin binding at the FMNAT site; parameters: species or system Corynebacterium ammoniagenes; settings: all variants, 20 mM PIPES, 10 mM MgCl2, pH 7.0, 25 °C
Description: Spectroscopic measurements were carried out following previously established conditions and protocols. UV–visible absorption spectra were recorded in a Cary 100 spectrophotometer (Agilent Technologies, Santa Clara, CA, USA). Experimental extinction coefficients at 279 nm (ε^279) for each variant were determined based on the Gill and von Hippel method. In short, the UV–visible absorbance spectrum of the protein was recorded. Then samples were denatured with guanidinium hydrochloride (6 M in 20 mM sodium phosphate, pH 6.5). Then, the absorbance spectrum of the denatured sample was recorded and its concentration was calculated considering the theoretical extinction coefficient determined using the amino acid sequence. This concentration, taking into account the protein dilution in the denaturation process, was then used to determine ε^279 at the protein maximum by using the native protein spectrum before denaturation. Difference spectroscopy measurements were carried out in 20 mM PIPES, 10 mM MgCl2, pH 7.0, with saturating concentrations of ligands. Circular dichroism (CD) spectra were recorded using a Chirascan spectropolarimeter (Appl. Phot. Ltd., Leatherhead, Surrey, UK) at 25 °C. […]

L98W CaFADS = biological target: T1, L98W CaFADS (Corynebacterium ammoniagenes, UniProt Q59263, L98W); assay: Isothermal titration calorimetry (ITC) of ligand binding at the FMNAT site; settings: 20 mM PIPES
T1 construct: made in house; host or cells: E. coli BL21(DE3)

P56W CaFADS = biological target: T2, P56W CaFADS (Corynebacterium ammoniagenes, UniProt Q59263, P56W); assay: as above; settings: for -TΔS / ΔG / ΔH: P56W CaFADS, 20 mM PIPES
T2 construct: made in house; host or cells: E. coli BL21(DE3)

P56A/P58A CaFADS = biological target: T3, P56A/P58A CaFADS (Corynebacterium ammoniagenes, UniProt Q59263, P56A/P58A); assay: as above; settings: 20 mM PIPES
T3 construct: made in house; host or cells: E. coli BL21(DE3)

P58W CaFADS = biological target: T4, P58W CaFADS (Corynebacterium ammoniagenes, UniProt Q59263, P58W); assay: as above; settings: 20 mM PIPES
T4 construct: made in house; host or cells: E. coli BL21(DE3)

CaFADS variants [3] = assay: Qualitative detection of RFK, FMNAT and FADpp activities by TLC; format: biochemical, Corynebacterium ammoniagenes; settings: all variants, 200 nM enzyme, 50 μM flavin, 0.2 mM ATP, 10 mM MgCl2, pH 7.0, 30 min and 2 h
Description: RFK and FMNAT activities were qualitatively assayed by the incubation of enzymes with substrates and separation of flavins (substrates and products) from reaction mixtures using TLC on Silica Gel SIL-G-25 plates (20 × 20 cm, thickness 0.25 mm) as previously described. […] Reactions were stopped by boiling the preparations for 5 min. Flavin spots were visualized under UV light.

WT CaFADS [4] = biological target: T5, WT CaFADS (Corynebacterium ammoniagenes, UniProt Q59263); assay: Isothermal titration calorimetry (ITC) of ligand binding at the FMNAT site; settings: 20 mM PIPES
T5 construct: made in house; host or cells: Escherichia coli

L98A CaFADS = biological target: T6, L98A CaFADS (Corynebacterium ammoniagenes, UniProt Q59263, L98A); assay: as above; settings: 20 mM PIPES
T6 construct: made in house; host or cells: E. coli BL21(DE3)

L98K CaFADS = biological target: T7, L98K CaFADS (Corynebacterium ammoniagenes, UniProt Q59263, L98K); assay: as above; settings: 20 mM PIPES, pH 7.0, no MgCl2
T7 construct: made in house; host or cells: E. coli BL21(DE3)

WT CaFADS [5] = biological target: T5, WT CaFADS; settings: cited from earlier work
[6] = 10 mM MgCl2, pH 7.0, n.d. = no interaction profile was detected

“L98A CaFADS (Corynebacterium ammoniagenes; L98A)” gave a Km ([1]; other: L98A CaFADS) of 1.5 ± 0.7 µM.

With `Cc1cc2nc3c(=O)[nH]c(=O)nc-3n(C[C@H](O)[C@H](O)[C@H](O)COP(=O)(O)O)c2cc1C` [FMN, Riboflavin 5′-phosphate] the “difference spectra after incubation with FMN” value (CaFADS variants [2]; saturating FMN) was “All the variants produced difference spectra”, the “-TΔS” value (L98W CaFADS; 10 mM MgCl2, pH 7.0) was -7.2 ± 0.1 kcal/mol and the ΔG (L98W CaFADS; 10 mM MgCl2, pH 7.0) was -8.7 ± 0.1 kcal/mol. For the same compound, the ΔH (L98W CaFADS; 10 mM MgCl2, pH 7.0) was -1.5 ± 0.1 kcal/mol, the “Kd^FMN lower than WT” value (P56W CaFADS; P56W CaFADS vs WT) was “up to 4 fold” and the “-TΔS” value (P56W CaFADS; 10 mM MgCl2, pH 7.0) was -6.5 ± 0.1 kcal/mol. For the same compound, the ΔG (P56W CaFADS; 10 mM MgCl2, pH 7.0) was -7.9 ± 0.1 kcal/mol, the ΔH (P56W CaFADS; 10 mM MgCl2, pH 7.0) was -1.4 ± 0.1 kcal/mol and the ΔG (P56A/P58A CaFADS; 10 mM MgCl2, pH 7.0) was -8.8 ± 0.1 kcal/mol. For the same compound, the ΔH (P56A/P58A CaFADS; 10 mM MgCl2, pH 7.0) was -1.8 ± 0.1 kcal/mol, the “-TΔS” value (P58W CaFADS; 10 mM MgCl2, pH 7.0) was -7.3 ± 0.1 kcal/mol and the ΔG (P58W CaFADS; 10 mM MgCl2, pH 7.0) was -8.6 ± 0.1 kcal/mol. For the same compound, the ΔH (P58W CaFADS; 10 mM MgCl2, pH 7.0) was -1.3 ± 0.1 kcal/mol, the “FMNAT activity (transformation of FMN into FAD), qualitative” value (CaFADS variants [3]) was “none of the variants was neither capable of catalyzing the transformation of FMN into FAD” and the “-TΔS” value (WT CaFADS [4]; 10 mM MgCl2, pH 7.0) was 15 ± 1 kcal/mol. The ΔH (WT CaFADS [4]; 10 mM MgCl2, pH 7.0) was -22 ± 1 kcal/mol, the “-TΔS” value (L98A CaFADS; [6]) was -7.9 ± 0.1 kcal/mol and the ΔG (L98A CaFADS; [6]) was -9.0 ± 0.1 kcal/mol. It also gave a ΔH (L98A CaFADS; [6]) of -1.2 ± 0.1 kcal/mol.

With “L98K CaFADS (Corynebacterium ammoniagenes; L98K)” the Km ([1]; other: L98K CaFADS) was 4.0 ± 1.1 µM.

Compound “L98W CaFADS (Corynebacterium ammoniagenes; L98W)” has a Km ([1]; other: L98W CaFADS) of 1.6 ± 0.6 µM.

In the case of `Nc1ncnc2c1ncn2[C@@H]1O[C@H](COP(=O)(O)OP(=O)(O)OP(=O)(O)O)[C@@H](O)[C@H]1O` [ATP, Adenosine 5′-triphosphate], the “-TΔS” value (L98W CaFADS; pH 7.0, no MgCl2) is reported as 26 ± 6 kcal/mol, the ΔH (L98W CaFADS; pH 7.0, no MgCl2) is reported as -32 ± 6 kcal/mol and the “-TΔS” value (L98K CaFADS) is reported as 33 ± 19 kcal/mol. The ΔG (L98K CaFADS) was -5.6 ± 0.2 kcal/mol, the ΔH (L98K CaFADS) was -39 ± 19 kcal/mol and the “-TΔS” value (P56W CaFADS; pH 7.0, no MgCl2) was 11 ± 2 kcal/mol. The ΔH (P56W CaFADS; pH 7.0, no MgCl2) was -16 ± 3 kcal/mol, the “-TΔS” value (P56A/P58A CaFADS; pH 7.0, no MgCl2) was -3.6 ± 0.2 kcal/mol and the ΔG (P56A/P58A CaFADS; pH 7.0, no MgCl2) was -6.4 ± 0.1 kcal/mol. For the same compound, the ΔH (P56A/P58A CaFADS; pH 7.0, no MgCl2) was -2.8 ± 0.2 kcal/mol, the “-TΔS” value (P58W CaFADS; pH 7.0, no MgCl2) was -3.8 ± 0.1 kcal/mol and the ΔG (P58W CaFADS; pH 7.0, no MgCl2) was -6.5 ± 0.1 kcal/mol. For the same compound, the ΔH (P58W CaFADS; pH 7.0, no MgCl2) was -2.7 ± 0.1 kcal/mol, the “-TΔS” value (WT CaFADS [4]; pH 7.0, no MgCl2) was 39 ± 6 kcal/mol and the ΔH (WT CaFADS [4]; pH 7.0, no MgCl2) was -44 ± 6 kcal/mol. For the same compound, the “-TΔS” value (L98A CaFADS; pH 7.0, no MgCl2) was 15 ± 2 kcal/mol, the ΔG (L98A CaFADS; pH 7.0, no MgCl2) was -5.6 ± 0.1 kcal/mol and the ΔH (L98A CaFADS; pH 7.0, no MgCl2) was -20 ± 3 kcal/mol. For the same compound, the kcat (WT CaFADS [5]; ATP varied, RF at ~80% of maximum activity, apparent value, 20 mM PIPES, 0.8 mM MgCl2, pH 7.0, 25 °C) was 2.58 ± 0.083 s⁻¹ and the Km (WT CaFADS [5]; read-out: Km^ATP, ATP varied, RF at ~80% of maximum activity, 20 mM PIPES, 0.8 mM MgCl2, pH 7.0, 25 °C) was 28 ± 4 µM.

Work on “P56W CaFADS (Corynebacterium ammoniagenes; P56W)” yielded a Km ([1]; other: P56W CaFADS) of 0.4 ± 0.1 µM.

“P56A/P58A CaFADS (Corynebacterium ammoniagenes; P56A/P58A)” gave a Km ([1]; other: P56A/P58A CaFADS) of 0.9 ± 0.4 µM.

In the case of “P58W CaFADS (Corynebacterium ammoniagenes; P58W)”, the Km ([1]; other: P58W CaFADS) is reported as 1.3 ± 0.7 µM.

In the case of `Cc1cc2nc3c(=O)[nH]c(=O)nc-3n(C[C@H](O)[C@H](O)[C@H](O)COP(=O)(O)OP(=O)(O)OC[C@H]3O[C@@H](n4cnc5c(N)ncnc54)[C@H](O)[C@@H]3O)c2cc1C` [FAD, Riboflavin 5′-adenosine diphosphate], the “difference spectra on titration with FAD” value (CaFADS variants [2]; saturating FAD) is reported as “hardly produced difference spectra”, the “-TΔS” value (L98W CaFADS; 10 mM MgCl2, pH 7.0) is reported as -6.9 ± 0.1 kcal/mol and the ΔG (L98W CaFADS; 10 mM MgCl2, pH 7.0) is reported as -7.4 ± 0.1 kcal/mol. The ΔH (L98W CaFADS; 10 mM MgCl2, pH 7.0) was -0.6 ± 0.1 kcal/mol, the “-TΔS” value (P56W CaFADS; 10 mM MgCl2, pH 7.0) was -6.1 ± 0.1 kcal/mol and the ΔG (P56W CaFADS; 10 mM MgCl2, pH 7.0) was -6.9 ± 0.1 kcal/mol. For the same compound, the ΔH (P56W CaFADS; 10 mM MgCl2, pH 7.0) was -0.9 ± 0.1 kcal/mol, the “-TΔS” value (P56A/P58A CaFADS; 10 mM MgCl2, pH 7.0) was -7.4 ± 0.1 kcal/mol and the ΔG (P56A/P58A CaFADS; 10 mM MgCl2, pH 7.0) was -7.8 ± 0.1 kcal/mol. For the same compound, the ΔH (P56A/P58A CaFADS; 10 mM MgCl2, pH 7.0) was -0.39 ± 0.1 kcal/mol, the “-TΔS” value (P58W CaFADS; 10 mM MgCl2, pH 7.0) was -7.0 ± 0.1 kcal/mol and the ΔG (P58W CaFADS; 10 mM MgCl2, pH 7.0) was -7.6 ± 0.1 kcal/mol. The ΔH (P58W CaFADS; 10 mM MgCl2, pH 7.0) was -0.56 ± 0.02 kcal/mol, the “-TΔS” value (WT CaFADS [4]; 10 mM MgCl2, pH 7.0) was 18 ± 1 kcal/mol and the ΔH (WT CaFADS [4]; 10 mM MgCl2, pH 7.0) was -26 ± 1 kcal/mol.
